Experiments:
Assay type in all cases: in vivo
Amaranthus retroflexus = experiment: Herbicidal post-emergence action, AMARE
Excerpt: (§1) • Seeds of monocotyledonous and dicotyledonous weed plants and crop plants are placed in wood-fiber pots in sandy loam and covered with soil. The test compounds, formulated in the form of wettable powders (WP) or emulsion concentrates (EC), are then, as an aqueous suspension with a water application rate of 600-800 l/ha (converted), with 0.1-0.2% of wetting agent added, applied at various dosages to the surface of the covering soil. • After the treatment, the pots are placed in a greenhouse and kept under good growth conditions for the test plants. […] Herbicidal Post-Emergence Action (Post) • Seeds of monocotyledonous and dicotyledonous weed and crop plants are placed in sandy loam in wood-fiber pots, covered with soil and cultivated in a greenhouse under good growth conditions. 2-3 weeks (stages 10-13 according to the BBCH scale) after sowing, the test plants are treated at a height of 5-10 cm. The test compounds, formulated as wettable powders (WP) or emulsion concentrates (EC), are then, with a water application rate of 600-800 l/ha (converted), with 0.1-0.2% of wetting agent added, sprayed at various dosages onto the green parts of the plants. […]

Stellaria media = experiment: Herbicidal post-emergence action, STEME
Excerpt: as §1

Lolium multiflorum [1] = experiment: Herbicidal post-emergence action, LOLMU
Procedure: (§2) 2. Herbicidal Post-Emergence Action
(§3) • Seeds of monocotyledonous and dicotyledonous weed and crop plants are placed in sandy loam in wood-fiber pots, covered with soil and cultivated in a greenhouse under good growth conditions. 2 to 3 weeks after sowing, the test plants are treated at the one-leaf stage. The test compounds, formulated as wettable powders (WP), are then, with a water application rate of 600 l/ha (converted), with 0.2% of wetting agent added, sprayed at various dosages onto the green parts of the plants. After the test plants have been kept in the greenhouse under optimum growth conditions for about 3 weeks, the activity of the preparations is rated visually in comparison to untreated controls (herbicidal activity in percent: 100% activity=the plants have died, 0% activity=like control plants). • In addition to the compounds mentioned above, the following compounds show an activity of 90-100% against Alopecurus myosuroides, Avena fatua, Digitaria sanguinalis, Echinocloa crus-galli, Lolium multiflorum, Setaria viridis and Sorghum halapense when applied by the post-emergence method at 320 g/ha: I-a-2, I-a-4, I-a-5, I-a-7, I-a-9, I-a-10, I-a-11, I-a-12, I-a-13, I-a-15. • In addition to the compounds mentioned above, the following compounds show an activity of 90-100% against Alopecurus myosuroides, Avena fatua, Echinocloa crus-galli, Lolium multiflorum and Setaria viridis when applied by the post-emergence method at 80 g/ha: I-a-1, I-b-2.
(§4) • Seeds of monocotyledonous and dicotyledonous weed plants and crop plants are placed in wood-fiber pots in sandy loam and covered with soil. The test compounds, formulated in the form of wettable powders (WP) or emulsion concentrates (EC), are then, as an aqueous suspension with a water application rate of 600-800 l/ha (converted), with 0.1-0.2% of wetting agent added, applied at various dosages to the surface of the covering soil. • After the treatment, the pots are placed in a greenhouse and kept under good growth conditions for the test plants. […] Herbicidal Post-Emergence Action (Post) • Seeds of monocotyledonous and dicotyledonous weed and crop plants are placed in sandy loam in wood-fiber pots, covered with soil and cultivated in a greenhouse under good growth conditions. 2-3 weeks (stages 10-13 according to the BBCH scale) after sowing, the test plants are treated at a height of 5-10 cm. The test compounds, formulated as wettable powders (WP) or emulsion concentrates (EC), are then, with a water application rate of 600-800 l/ha (converted), with 0.1-0.2% of wetting agent added, sprayed at various dosages onto the green parts of the plants.
(§5) AVEFA: Avena fatua LOLMU: Lolium multiflorum SETVI: Setaria viridis CHEAL: Chenopodium album VIOTR: Viola tricolor VERPE: Veronica persica ORYSA: Oryza sativa TRZAS: Triticum aestivum ZEAMX: Zea mays ALOMY: Alopecurus myosuroides DIGSA: Digitaria sanguinalis ECHCG: Echinocloa crus-galli SORHA: Sorghum halepense AVESA: Avena sativa AMARE: Amaranthus retroflexus SINAL: Sinapis alba STEME: Stellaria media

Setaria viridis [2] = experiment: Herbicidal post-emergence action, SETVI
Procedure: as §2, §3, §4, §5

Avena sativa = experiment: Herbicidal post-emergence action, AVESA
Excerpt: as §1

Sinapis alba = experiment: Herbicidal post-emergence action, SINAL
Excerpt: as §1

Digitaria sanguinalis = experiment: Herbicidal post-emergence action, DIGSA; conditions: 80 g/ha
Procedure: as §2, §3, §4, §5

Avena fatua [3] = experiment: Herbicidal post-emergence action, AVEFA; conditions: 80 g/ha
Procedure: as §2, §3, §4, §5

Veronica persica [4] = experiment: Herbicidal post-emergence action, VERPE
Excerpt: as §1

Setaria viridis [5] = experiment: Herbicidal pre-emergence action, SETVI; conditions: 320 g/ha
Excerpt: (§6) 1. Herbicidal Pre-Emergence Action
(§7) • Seeds of monocotyledonous and dicotyledonous weed plants and crop plants are placed in wood-fiber pots in sandy loam and covered with soil. The test compounds, formulated in the form of wettable powders (WP), are then, as an aqueous suspension with a water application rate of 600 l/ha (converted), with 0.2% of wetting agent added, applied at various dosages to the surface of the covering soil. • After the treatment, the pots are placed in a greenhouse and kept under good growth conditions for the test plants. The visual assessment of the damage to the test plants is carried out after a trial period of about 3 weeks by comparison with untreated controls (herbicidal activity in percent: 100% activity=the plants have died, 0% activity=like control plants). • In addition to the compounds mentioned above, the following compounds show an activity of 90-100% against Alopecurus myosuroides, Digitaria sanguinalis, Echinocloa crus-galli, Lolium multiflorum, Setaria viridis and Sorghum halapense when applied by the pre-emergence method at 320 g/ha of a.i.: I-a-2, I-a-10, I-a-11, I-a-12.
(§8) 1. Herbicidal Pre-Emergence Action (Pre)
as §4, §5

Chenopodium album = experiment: Herbicidal pre-emergence action, CHEAL
Excerpt: as §8, §1

Triticum aestivum = experiment: Herbicidal post-emergence action, TRZAS; conditions: 80 g/ha
Excerpt: as §4, §5

Lolium multiflorum [6] = experiment: Herbicidal pre-emergence action, LOLMU
Excerpt: as §6, §7, §8
(§9) • Seeds of monocotyledonous and dicotyledonous weed plants and crop plants are placed in wood-fiber pots in sandy loam and covered with soil. […]

Sorghum halepense = experiment: Herbicidal post-emergence action, SORHA
Procedure: as §2, §3, §4, §5

Avena fatua [7] = experiment: Herbicidal pre-emergence action, AVEFA
Excerpt: as §6, §7, §8, §9

Oryza sativa = experiment: Herbicidal post-emergence action, ORYSA; conditions: 80 g/ha
Excerpt: as §4, §5

Echinocloa crus-galli = experiment: Herbicidal post-emergence action, ECHCG; conditions: 80 g/ha
Procedure: as §2, §3, §4, §5

Alopecurus myosuroides = experiment: Herbicidal post-emergence action, ALOMY; conditions: 80 g/ha
Procedure: as §2, §3, §4, §5

Veronica persica [8] = experiment: Herbicidal pre-emergence action, VERPE
Excerpt: as §8, §1

Zea mays = experiment: Herbicidal post-emergence action, ZEAMX; conditions: 80 g/ha
Excerpt: as §4, §5

Viola tricolor = experiment: Herbicidal pre-emergence action, VIOTR
Excerpt: as §8, §1

Myzus persicae = experiment: Myzus test (MYZUPE spray treatment); conditions: application rate 500 g/ha, after 5 days, Chinese cabbage leaf discs
Procedure: Myzus Test (MYZUPE Spray Treatment) [table] To produce a suitable preparation of active compound, 1 part by weight of active compound is mixed with the stated amount of solvent and emulsifier, and the concentrate is diluted with emulsifier-containing water to the desired concentration. Discs of Chinese cabbage (Brassica pekinensis) infected by all stages of the green peach aphid (Myzus persicae) are sprayed with an active compound preparation of the desired concentration. After 5 days, the effect in % is determined 100% means that all of the aphids have been killed; 0% means that none of the aphids have been killed. Myzus Test (MYZUPE Spray Treatment) To produce a suitable preparation of active compound, 1 part by weight of active compound is mixed with the stated amount of solvent and emulsifier, and the concentrate is diluted with emulsifier-containing water to the desired concentration. Discs of Chinese cabbage (Brassica pekinensis) infected by all stages of the green peach aphid (Myzus persicae) are sprayed with an active compound preparation of the desired concentration. After the desired period of time, the activity in % is determined. 100% means that all of the aphids have been killed; 0% means that none of the aphids have been killed.

## CCc1cc(Cl)cc(OC)c1C1=C(OC(=O)C(C)(C)C)C2(CCC(OC)CC2)NC1=O (centres unmarked)
Amaranthus retroflexus; Amaranthus retroflexus, post-emergence
  inhibition at 320 g/ha: 0%
Stellaria media; Stellaria media, post-emergence
  inhibition at 320 g/ha: 0%
Lolium multiflorum [1]; Lolium multiflorum, post-emergence, 320 g/ha
  inhibition at 320 g/ha: 0%
Setaria viridis [2]; Setaria viridis, post-emergence, 320 g/ha
  inhibition at 320 g/ha: 0%
Avena sativa; Avena sativa, post-emergence
  inhibition at 320 g/ha: 0%
Sinapis alba; Sinapis alba, post-emergence
  inhibition at 320 g/ha: 0%

## CCc1cc(Cl)cc(Cl)c1C1=C(OC(=O)C(C)(C)C)NC2(CCC(C)CC2)C1=O (centres unmarked) [I-a-4]
Digitaria sanguinalis
  % Activity DIGSA: 100%
Avena fatua [3]
  % Activity AVEFA: 100%
Veronica persica [4]; 80 g/ha
  % Activity VERPE: 60%
Setaria viridis [5]
  % Activity SETVI: 90%
Chenopodium album; 320 g/ha
  % Activity CHEAL: 50%
Triticum aestivum
  % Activity TRZAS: 100%
Lolium multiflorum [6]; 320 g/ha
  % Activity LOLMU: 100%
Sorghum halepense; 80 g/ha
  % Activity SORHA: 100%
Lolium multiflorum [1]; 80 g/ha
  % Activity LOLMU: 100%
Setaria viridis [2]; 80 g/ha
  % Activity SETVI: 100%
Avena fatua [7]; 320 g/ha
  % Activity AVEFA: 50%
Oryza sativa
  % Activity ORYSA: 100%
Echinocloa crus-galli
  % Activity ECHCG: 100%
Alopecurus myosuroides
  % Activity ALOMY: 100%
Veronica persica [8]; 320 g/ha
  % Activity VERPE: 40%
Zea mays
  % Activity ZEAMX: 100%
Viola tricolor; 320 g/ha
  % Activity VIOTR: 70%

## CCc1cc(Cl)cc(OC)c1C1=C(OC(=O)C(C)(C)C)NC2(CCC(OC)CC2)C1=O (centres unmarked) [I-a-9]
Amaranthus retroflexus; 320 g/ha
  % Activity AMARE: 40%
Stellaria media; 320 g/ha
  % Activity STEME: 40%
Lolium multiflorum [1]; 320 g/ha
  % Activity LOLMU: 100%
Setaria viridis [2]; 320 g/ha
  % Activity SETVI: 100%
Avena sativa; 320 g/ha
  % Activity AVESA: 90%
Sinapis alba; 320 g/ha
  % Activity SINAL: 60%
Myzus persicae
  effect in % (aphids killed): 80%

## CCc1cc(Cl)cc(Cl)c1C1=C(OC(=O)C(C)(C)C)C2(CCC(C)CC2)NC1=O (centres unmarked) [I-b-12 known from WO 04/065366]
Setaria viridis [5]; Setaria viridis, pre-emergence
  inhibition at 320 g/ha: 40%
Chenopodium album; Chenopodium album, pre-emergence
  inhibition at 320 g/ha: 0%
Lolium multiflorum [6]; Lolium multiflorum, pre-emergence
  inhibition at 320 g/ha: 40%
Avena fatua [7]; Avena fatua, pre-emergence
  inhibition at 320 g/ha: 0%
Veronica persica [8]; Veronica persica, pre-emergence
  inhibition at 320 g/ha: 0%
Viola tricolor; Viola tricolor, pre-emergence
  inhibition at 320 g/ha: 0%

## CCc1cccc(Cl)c1C1=C(OC(=O)C(C)(C)C)C2(CCC(C)CC2)NC1=O (centres unmarked) [I-b-12 known from WO 04/065366]
Digitaria sanguinalis; Digitaria sanguinalis, post-emergence
  inhibition at 80 g/ha: 30%
Avena fatua [3]; Avena fatua, post-emergence
  inhibition at 80 g/ha: 0%
Veronica persica [4]; Veronica persica, post-emergence
  inhibition at 80 g/ha: 0%
Triticum aestivum; Triticum aestivum, post-emergence
  inhibition at 80 g/ha: 0%
Sorghum halepense; Sorghum halepense, post-emergence
  inhibition at 80 g/ha: 0%
Lolium multiflorum [1]; Lolium multiflorum, post-emergence, 80 g/ha
  inhibition at 80 g/ha: 0%
Setaria viridis [2]; Setaria viridis, post-emergence, 80 g/ha
  inhibition at 80 g/ha: 30%
Oryza sativa; Oryza sativa, post-emergence
  inhibition at 80 g/ha: 0%
Echinocloa crus-galli; Echinochloa crus-galli, post-emergence
  inhibition at 80 g/ha: 40%
Alopecurus myosuroides; Alopecurus myosuroides, post-emergence
  inhibition at 80 g/ha: 0%
Zea mays; Zea mays, post-emergence
  inhibition at 80 g/ha: 0%

— US9204640B2, “2-acyloxy-pyrrolin-4-ones” (BAYER INTELLECTUAL PROPERTY GMBH, priority 2011, dated 2015)
